According to patent publication US20230091047A1 (priority 2019, published 2023):
Read-outs that look alike come from different tables or passages of the source.

Assays:
in vitro = format: cell-based; conditions: human, HepG2 or HepG2.117 cells, mean value; for CC50 at 4 days: 4-days incubation (values marked with *)
How it was run: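 Luminescent ATP quantitation served as the viability endpoint following a 3- or 4-day incubation with test compounds.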

[1] = tested on: HBV (HepG2.117 cell line, inducibly HBV producing); test: Anti-HBV activity: intracellular HBV DNA by real-time PCR in HepG2.117 cells after 3 days of treatment; format: cell-based, hepatitis B virus
How it was run: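 First, HBV replication is induced in HepG2.117 cells by doxycycline absence. Next, serially diluted compound is added for 3 days. Finally, intracellular HBV DNA is quantified by HBV-specific real-time PCR.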

[2] = ATPlite, 3-days incubation (not marked with *)
[3] = Hepatitis B virus, HepG2.117, 72 h, HepG2.117 cells, intracellular HBV DNA by real-time PCR, 3 days of treatment, mean value; read-out: EC50 (μM, mean value)
[4] = 3-days incubation (unmarked values), ATPlite viability
[5] = Hepatitis B virus, HepG2.117, 72 h, HepG2.117 cells, 3 days of treatment, intracellular HBV DNA by real-time PCR; mean value; read-out: EC50 (μM, mean value)
[6] = 3-days incubation (unmarked values), ATPlite

Row | Compound | CC50 at 3 days (in vitro; [2]) | EC50 [1, 3] | EC50 [1, 5] | other results
1 | CNC(=O)c1ccc(-n2c(NC(C)C)nc3c(c2=O)C[C@@H](C)N(C(=O)c2ccc(Cl)c(C(F)(F)F)c2)C3)c(Cl)c1 (single isomer, unassigned) [Compound C639a] | > 50 µM | 0.02 µM | – | –
2 | CNC(=O)c1ccc(-n2c(N[C@H](C)c3ccc4[nH]cnc4c3)nc3c(c2=O)C[C@@H](C)N(C(=O)c2ccc(Cl)c(Cl)c2)C3)cc1 (single isomer, unassigned) [Compound C647a] | > 50 µM | > 2.5 µM | – | –
3 | CNC(=O)c1ccc(-n2c(N[C@@H](C)c3ccc4[nH]cnc4c3)nc3c(c2=O)C[C@@H](C)N(C(=O)c2ccc(Cl)c(Cl)c2)C3)cc1 (single isomer, unassigned) [Compound C647b] | > 50 µM | > 2.5 µM | – | –
4 | CNC(=O)c1ccc(-n2c(N[C@H](C)c3ccc(C(F)(F)F)c(F)c3)nc3c(c2=O)C[C@@H](C)N(C(=O)c2ccc(Cl)c(Cl)c2)C3)cc1 (single isomer, unassigned) [Compound C659a] | 6.8 µM | 0.12 µM | – | –
5 | CNC(=O)c1ccc(-n2c(N[C@H](C)c3cccc(C(F)F)c3)nc3c(c2=O)C[C@@H](C)N(C(=O)c2ccc(Cl)c(Cl)c2)C3)cc1 (single isomer, unassigned) [Compound C660a] | > 50 µM | 1.3 µM | – | –
6 | CNC(=O)c1ccc(-n2c(N[C@@H](C)c3cccc(C(F)F)c3)nc3c(c2=O)C[C@@H](C)N(C(=O)c2ccc(Cl)c(Cl)c2)C3)cc1 (single isomer, unassigned) [Compound C660b] | 27.5 µM | 0.32 µM | – | –
7 | CNC(=O)c1ccc(-n2c(N[C@H](C)c3ccc(C(F)(F)F)c(Cl)c3)nc3c(c2=O)C[C@@H](C)N(C(=O)c2ccc(Cl)c(Cl)c2)C3)cc1 (single isomer, unassigned) [Compound C664a] | 6.7 µM | 0.13 µM | – | –
8 | CNC(=O)c1ccc(-n2c(N[C@@H](C)c3ccc(C(F)(F)F)c(Cl)c3)nc3c(c2=O)C[C@@H](C)N(C(=O)c2ccc(Cl)c(Cl)c2)C3)cc1 (single isomer, unassigned) [Compound C664b] | > 50 µM | > 2.5 µM | – | –
9 | CNC(=O)c1ccc(-n2c(N[C@H](C)c3cnccn3)nc3c(c2=O)C[C@@H](C)N(C(=O)c2ccc(Cl)c(C(F)(F)F)c2)C3)cc1 (single isomer, unassigned) [Compound C665a] | > 50 µM | 0.49 µM | – | –
10 | CNC(=O)c1ccc(-n2c(N[C@@H](C)c3cnccn3)nc3c(c2=O)C[C@@H](C)N(C(=O)c2ccc(Cl)c(C(F)(F)F)c2)C3)cc1 (single isomer, unassigned) [Compound C665b] | > 50 µM | 0.65 µM | – | –
11 | CNC(=O)c1ccc(-n2c(NC(C)C)nc3c(c2=O)C[C@@H](C)N(C(=O)c2ccc(Cl)c(C(F)(F)F)c2)C3)c(C(F)F)c1 (single isomer, unassigned) [Compound C669a] | 29.8 µM | 0.02 µM | – | –
12 | CC(C)Nc1nc2c(c(=O)n1-c1ccc(C(=O)NC3CC3)cc1Cl)C[C@@H](C)N(C(=O)c1ccc(Cl)c(C(F)(F)F)c1)C2 (single isomer, unassigned) [Compound C673a] | > 25 µM | 0.03 µM | – | –
13 | CNC(=O)c1ccc(-n2c(N[C@@H](C)C3CC3)nc3c(c2=O)C[C@@H](C)N(C(=O)c2ccc(Cl)c(C(F)(F)F)c2)C3)c(Cl)c1 (single isomer, unassigned) [Compound C676a] | > 50 µM | 0.03 µM | – | –
14 | CNC(=O)c1ccc(-n2c(NC(C)(C)C)nc3c(c2=O)C[C@@H](C)N(C(=O)c2ccc(Cl)c(C(F)(F)F)c2)C3)c(Cl)c1 (single isomer, unassigned) [Compound C677a] | – | – | 0.02 µM | CC50 at 3 days (in vitro; [4]): > 50 µM
15 | CNC(=O)c1ccc(-n2c(NC(C)(C)C)nc3c(c2=O)C[C@@H](C)N(C(=O)c2ccc(Cl)c(C(F)(F)F)c2)C3)c(Cl)c1 (single isomer, unassigned) [Compound C677b] | 24 µM | 0.02 µM | – | –
16 | COc1cc(C(=O)NC2CC2)ccc1-n1c(NC(C)C)nc2c(c1=O)C[C@@H](C)N(C(=O)c1ccc(Cl)c(C(F)(F)F)c1)C2 (single isomer, unassigned) [Compound C678a] | 43 µM | 0.04 µM | – | –

Row | Compound | CC50 at 3 days (in vitro; [2]) | EC50 [1, 3] | EC50 [1, 5] | other results
17 | CNC(=O)c1ccc(-n2c(NC(C)C)nc3c(c2=O)C[C@@H](C)N(C(=O)c2ccc(Cl)c(C(F)F)c2)C3)c(Cl)c1 (single isomer, unassigned) [Compound C685a] | > 50 µM | 0.03 µM | – | –
18 | CNC(=O)c1ccc(-n2c(N[C@H](C)c3ccc(F)cc3F)nc3c(c2=O)C[C@@H](C)N(C(=O)c2ccc(Cl)c(Cl)c2)C3)cc1 (single isomer, unassigned) [Compound C689a] | 16.7 µM | 0.2 µM | – | –
19 | CNC(=O)c1ccc(-n2c(N[C@@H](C)c3ccc(F)cc3F)nc3c(c2=O)C[C@@H](C)N(C(=O)c2ccc(Cl)c(Cl)c2)C3)cc1 (single isomer, unassigned) [Compound C689b] | 27.3 µM | 0.46 µM | – | –
20 | CNC(=O)c1ccc(-n2c(N3CC4CC3C4)nc3c(c2=O)C[C@@H](C)N(C(=O)c2ccc(Cl)c(C(F)(F)F)c2)C3)c(Cl)c1 (single isomer, unassigned) [Compound C701a] | – | – | 0.04 µM | CC50 at 3 days (in vitro; [4]): > 50 µM
21 | COc1ccc(CNc2nc3c(c(=O)n2-c2ccccc2OC)CCN(C(=O)c2ccc(Cl)c(Cl)c2)C3)cc1 [Compound C1, 7-(3,4-dichlorobenzoyl)-3-(2-methoxyphenyl)-2-{[(4-methoxyphenyl)methyl]amino}-5,6,7,8-tetrahydropyrido[3,4-d]pyrimidin-4(3H)-one] | – | – | 1.47 µM | CC50 at 3 days (in vitro; [6]): > 50 µM
22 | COc1ccc(CNc2nc3c(c(=O)n2-c2ccccc2OC)CCN(C(=O)c2cc4ccccc4[nH]2)C3)cc1 [Compound C2, 7-(1H-indole-2-carbonyl)-2-((4-methoxybenzyl)amino)-3-(2-methoxyphenyl)-5,6,7,8-tetrahydropyrido[3,4-d]pyrimidin-4(3H)-one] | – | – | 1.75 µM | CC50 at 4 days (in vitro; ATPlite): > 50 µM
23 | COc1ccc(CNc2nc3c(c(=O)n2-c2ccccc2OC)CCN(C(=O)c2ccc(F)c(Cl)c2)C3)cc1 [Compound C3, 7-(3-chloro-4-fluorobenzoyl)-3-(2-methoxyphenyl)-2-{[(4-methoxyphenyl)methyl]amino}-5,6,7,8-tetrahydropyrido[3,4-d]pyrimidin-4(3H)-one] | – | – | 8.48 µM | CC50 at 4 days (in vitro; ATPlite): > 50 µM
24 | COc1ccccc1-n1c(SC)nc2c(c1=O)CCN(C(=O)c1ccc(Cl)c(Cl)c1)C2 [Compound C4, 7-(3,4-dichlorobenzoyl)-3-(2-methoxyphenyl)-2-(methylsulfanyl)-5,6,7,8-tetrahydropyrido[3,4-d]pyrimidin-4(3H)-one] | – | – | 1.79 µM | CC50 at 4 days (in vitro; ATPlite): 36.8 µM
25 | COc1ccccc1-n1c(NCc2ccncc2)nc2c(c1=O)CCN(C(=O)c1ccc(Cl)c(Cl)c1)C2 [Compound C5, 7-(3,4-dichlorobenzoyl)-3-(2-methoxyphenyl)-2-{[(Pyridin-4-yl)methyl]amino}-5,6,7,8-tetrahydropyrido[3,4-d]pyrimidin-4(3H)-one] | – | – | 5.35 µM | CC50 at 4 days (in vitro; ATPlite): > 50 µM
26 | CSc1nc2c(c(=O)[nH]1)CCN(C(=O)c1ccc(Cl)c(Cl)c1)C2 [Compound C6, 7-(3,4-dichlorobenzoyl)-2-(methylsulfanyl)-5,6,7,8-tetrahydropyrido[3,4-d]pyrimidin-4(3H)-one] | – | – | 16 µM | CC50 at 4 days (in vitro; ATPlite): > 50 µM
27 | COc1ccc(CNc2nc3c(c(=O)n2-c2cccc(C(F)(F)F)c2)CCN(C(=O)c2ccc(Cl)c(Cl)c2)C3)cc1 [Compound C7, 7-(3,4-dichlorobenzoyl)-2-{[(4-methoxyphenyl)methyl]amino}-3-[3-(trifluoromethyl)phenyl]-5,6,7,8-tetrahydropyrido[3,4-d]pyrimidin-4(3H)-one] | – | – | 2.03 µM | CC50 at 4 days (in vitro; ATPlite): > 50 µM
28 | COc1ccc(CNc2nc3c(c(=O)n2-c2cccc(OC)c2)CCN(C(=O)c2ccc(Cl)c(Cl)c2)C3)cc1 [Compound C8, 7-(3,4-dichlorobenzoyl)-3-(3-methoxyphenyl)-2-{[(4-methoxyphenyl)methyl]amino}-5,6,7,8-tetrahydropyrido[3,4-d]pyrimidin-4(3H)-one] | – | – | 1 µM | CC50 at 3 days (in vitro; [6]): > 50 µM
29 | COc1ccccc1-n1c(NCc2cccnc2)nc2c(c1=O)CCN(C(=O)c1ccc(Cl)c(Cl)c1)C2 [Compound C9, 7-(3,4-dichlorobenzoyl)-3-(2-methoxyphenyl)-2-{[(pyridin-3-yl)methyl]amino}-5,6,7,8-tetrahydropyrido[3,4-d]pyrimidin-4(3H)-one] | – | – | 11.6 µM | CC50 at 4 days (in vitro; ATPlite): > 50 µM
30 | COc1ccccc1-n1c(NCc2ccccc2)nc2c(c1=O)CCN(C(=O)c1ccc(Cl)c(Cl)c1)C2 [Compound C10, 2-(benzylamino)-7-(3,4-dichlorobenzoyl)-3-(2-methoxyphenyl)-5,6,7,8-tetrahydropyrido[3,4-d]pyrimidin-4(3H)-one] | – | – | 6.21 µM | CC50 at 4 days (in vitro; ATPlite): > 50 µM
31 | CNc1nc2c(c(=O)n1-c1ccccc1OC)CCN(C(=O)c1ccc(Cl)c(Cl)c1)C2 [Compound C11, 7-(3,4-dichlorobenzoyl)-3-(2-methoxyphenyl)-2-(methylamino)-5,6,7,8-tetrahydropyrido[3,4-d]pyrimidin-4(3H)-one] | – | – | 6.41 µM | CC50 at 4 days (in vitro; ATPlite): > 50 µM
